Earlier results, collected in patent US20080279776A1, “Photosensitizers and MRI Enhancers” (Photo Diagnostic Devices (PDD) Limited, priority 2005, published 2008).

Details: readings taken as a prototype

18-carboxy-20-(carboxymethyl)-8-ethenyl-13-ethyl-2,3-dihydro-3,7,12,17-tetramethyl-21H,23H-porphine-2-propanoic acid [Chlorine-e6]
LD10: 119 mg/kg weight
LD50: 160 mg/kg weight
